Laboratory results from patent US20150141506A1, “INDANE DIMERS FOR USE IN THE TREATMENT OF AUTOIMMUNE INFLAMMATORY DISEASE” (Venantius Limited, priority 2012, published 2015).
In brackets after ≈: the same amount, converted by molar mass. Entries after “also recorded” stand apart in the source; their conditions may differ. Where two headings read alike, the source gives them in different places.

Assays:
[1] = test system: 5% DSS colitis in BALB/c mice; assay: Acute murine 5% DSS colitis model, Experiment 1; assay type: in vivo
Source text: The study is widely used as a model for studying the pathogenesis of UC and also for screening new therapeutic interventions for the treatment of UC.
In these studies, an acute colitis model was used, with 5% DSS administered in the drinking water of BALB/c mice. This dosage regime induces severe acute colitis, by days 7-8 mice had overt rectal bleeding and marked weight loss; unless sacrificed beforehand, all mice would have died by days 10-12.
Specific Pathogen-Free BALB/c mice, 6-8 weeks of age, were obtained from a commercial supplier (Harlan UK). Mice were fed irradiated diet and housed in individually ventilated cages (Tecniplast UK) under positive pressure.
DSS (5%) was dissolved in drinking water. Compounds were administered orally at a dose of 10 mg/kg or 30 mg/kg on days 0-7, and mice were culled on day 8 or day 9, depending on the severity of the disease. The mice were checked each day for morbidity and the weight of individual mice was recorded. Induction of colitis was determined upon autopsy, length of colon and histology. Colons were recovered and stored at −20° C. for immunological analysis. All of the compounds and experimental groups are randomly alphabetically labelled. Throughout experiments all data recording was performed in a blind manner. The codes on boxes/groups were not broken until after the data was analysed i.e. boxes labelled A, B, C etc were identified as untreated, DSS-treated, or DSS+compound-treated.
To quantify the extent of colitis, a disease activity index (DAI) was determined based on weight loss, faecal blood and stool consistency. A score was given for each parameter, with the sum of the scores used as the DAI. For each treatment group n=8.
All compounds were prepared for oral gavage (0.1 mL per os (p.o.) per 10 g body weight) as a suspension in 0.5% carboxymethyl cellulose/2% Tween 80, at a dose of 3-30 mg/Kg.

[2] = Solubility in Milli-RO water and pH buffers; assay type: physicochemical
Method: The sodium salt, potassium salt, calcium salt, α-methylbenzylamine salt and N-Methyl-(D)-Glucamine salt were synthesised.
The solubility of the four compounds were determined: […]

[3] = Partition coefficient (Log10 POW) by HPLC method; assay type: physicochemical; settings: reverse phase C18 HPLC
[4] = test system: chronic colitis in IL10-/- BALB/c strain mice; assay: Chronic IL10-/- colitis model; assay type: in vivo; settings: MWF
Method: FIG. 15: Is a group showing weight loss in IL10^−−/−− mice treated with vehicle or compound 6. Mice were administered compound 6 (300 mg/kg/week) or vehicle orally on a Monday/Wednesday/Friday (MWF) dosing schedule. Mice were ˜4 weeks of age at start of experiment and were treated for 9 weeks. Mice were weighed weekly and data are presented as Mean±SEM from 9-12 mice per group. Mice were monitored for overt disease, rectal prolapse, and moribund animals were humanely killed;
Mice with a deletion in the IL10^−−/−− gene spontaneously develop chronic colitis, with the age of onset and the severity of the disease being dependent on background mouse strain and the conditions in which the animals are housed. The onset of colitis in IL10^−−/−− mice housed under the conditions used in this study was also strain dependent, with an earlier onset and greater severity, in terms of mortality, in BALB/c strain mice relative to C57BL/6 strain animals. In this experiment, animals received oral treatment on a MWF regime over 9 weeks. Initially, both groups of mice progressively gain weight (FIG. 15). […] By week 9 animals had marked weight loss, with one moribund animal humanely killed on day 60 in each group. As other mice were losing weight and developing clinical symptoms of disease, both groups were culled at week 9 (day 63) and analysed.

[5] = Plasma half-life in the rat; assay type: in vivo; settings: read-out: plasma half-life (t1/2) (converted)
[6] = 3, 10 and 30 mg/Kg oral daily for 7 days

For `O=C(O)c1ccc(C[C@@]2(C3=Cc4ccccc4C3)Cc3ccccc3[C@H]2O)cc1` [Compound 6], the “colon pathology (histology score) relative to vehicle” value ([1]; 10 mg/Kg) was “highly statistically significant reduction”, the “colon pathology (histology score) relative to vehicle” value ([1]; 30 mg/Kg) was “highly statistically significant reduction” and the “overt reactions in mice” value [1, 6] was “caused no overt reactions”. For the same molecule, the “severity of colitis, multiple parameters of disease” value [1, 6] was “ameliorated the severity of colitis; also recorded: dose-dependent”, the “DAI on the day of autopsy versus vehicle controls” value ([1]; 3-30 mg/kg, each dose level) was “significantly (P<0.05-P<0.01) lower” and the “potency compared among the four enantiomers, in words” value ([1]; 30 and 10 mg/kg) was “most potent of the four enantiomers”. For the same molecule, the “efficacy relative to prednisolone at 5 mg/Kg” value ([1]; compound 6 at 30 mg/Kg) was “comparable, or better; also recorded: comparable or better”, the “inhibition of colon shortening versus vehicle controls” value ([1]; day 7, 3 mg/kg) was “did not have a significant effect” and the “inhibition of colon shortening versus vehicle controls” value ([1]; day 7, 10 mg/kg) was “did have a significant effect”. The “disease activity index (DAI)” value ([1]; day 7, 10 mg/kg daily for 7 days, vehicle 9.3±0.51) was 3.3±0.52, the “colon cytokine levels (IL1β, TNFα, IL6)” value ([1]; day 7, 30 mg/kg) was “significant (P<0.05, 30 mg/kg) and dose-dependant reduction” and the “inhibition of colon shortening versus vehicle controls” value ([1]; day 7, 30 mg/kg) was “did have a significant effect; also recorded: significantly better than Prednisolone”. The “reduction of colonic myeloperoxidase (MPO) activity” value ([1]; day 7, 30 mg/kg) was 63%, the solubility ([2]; Milli-RO water, water, read-out: solubility, Milli-RO H20) was over 60000 µg/mL and the solubility ([2]; pH 4.0 buffer, pH 4, aqueous buffer, read-out: solubility, pH 4.0 Buffer) was 0.5 µg/mL (≈ 0.00131 mM). The solubility ([2]; pH 7.0 buffer, pH 7, aqueous buffer, read-out: solubility, pH 7.0 Buffer) was over 60000 µg/mL, the solubility ([2]; pH 9.0 buffer, pH 9, aqueous buffer, read-out: solubility, pH 9.0 Buffer) was over 3000 µg/mL and the “Log10 POW, Acid” value ([3]; acidic pH) was 2.6. For the same molecule, the “Log10 POW, Basic” value ([3]; alkaline pH) was 4.3, the “Log10 POW, Neutral” value ([3]; neutral pH) was 3.5 and the “survival by Kaplan-Meier analysis versus vehicle” value ([4]; 300 mg/kg/week oral, 9 weeks) was “no statistical difference in survival”. The “weight loss and deaths from colitis relative to vehicle, in words” value ([4]; 300 mg/kg/week oral, 9 weeks) was “delayed weight loss and reduced deaths from colitis”, the mortalities ([4]; 300 mg/kg/week oral, 9 weeks, vehicle 25%) was 9.2% and the “weight gain maintained until” value ([4]; 300 mg/kg/week oral, vehicle stopped gaining from week 5) was 8 week. For the same molecule, the “Serum Amyloid A (SAA) levels relative to vehicle” value ([4]; week 9, 300 mg/kg/week oral) was “significantly (P<0.05; Student's t-test) reduced”, the “extent of colon pathology (histology score) relative to vehicle” value ([4]; week 9, 300 mg/kg/week oral) was “significantly reduced” and the half-life [5] was 3 h.
